One compound from ChEMBL document CHEMBL2203004, “New diterpene furanoids from the Antarctic lichen Huea sp” (Bioorg Med Chem Lett, 2012) can be followed below.

Calls of active or inactive are those of the source. The rule behind the calls is not given here.

The target in test [1] is T1, Tyrosine-protein phosphatase non-receptor type 1 (Homo sapiens, UniProt P18031).
T1 sequence (P18031 whole entry): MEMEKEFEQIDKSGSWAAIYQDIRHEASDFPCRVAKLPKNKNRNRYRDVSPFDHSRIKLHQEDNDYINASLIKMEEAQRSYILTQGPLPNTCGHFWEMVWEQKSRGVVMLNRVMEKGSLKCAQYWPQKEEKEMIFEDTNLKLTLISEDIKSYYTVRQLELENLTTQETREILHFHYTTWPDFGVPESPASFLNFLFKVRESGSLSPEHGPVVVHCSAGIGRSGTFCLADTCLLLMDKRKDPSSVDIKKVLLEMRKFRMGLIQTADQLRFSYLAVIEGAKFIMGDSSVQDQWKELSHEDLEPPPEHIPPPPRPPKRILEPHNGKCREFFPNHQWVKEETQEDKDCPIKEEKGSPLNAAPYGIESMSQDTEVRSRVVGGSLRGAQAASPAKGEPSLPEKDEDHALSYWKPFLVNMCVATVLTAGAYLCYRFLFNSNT
The test is described as follows: (§1) Inhibition of human recombinant PTP1B using p-nitrophenyl phosphate as substrate after 30 mins by spectrophotometric analysis.

The target in test [2] is T2, Tyrosine-protein phosphatase non-receptor type 1 (Homo sapiens) (UniProt P18031).
T2 sequence (whole entry): T1 sequence (P18031 whole entry)
The description is as §1.

Test [3] addresses T2, Tyrosine-protein phosphatase non-receptor type 1 (Homo sapiens). The test is described as follows: Noncompetitive inhibition of human recombinant PTP1B using p-nitrophenyl phosphate as substrate at 5.57 to 14.87 uM after 30 mins by Lineweaver-Burk plot analysis.

For `C=CC(C)(O)C/C=C/[C@@]1(C)CC[C@@H](C(C)(O)CC(=O)C=C(C)C)O1` (relative stereo), in test [1], the IC50 turned out to be 13.9 µM. For the same compound, in test [2], the inhibition result was “Dose-dependent effect”. For the same compound, the inhibition entry in test [3] is “Active”.
